Laboratory results reported in patent EP0476645B1, “Calcium uptake inhibitors” (MERRELL DOW PHARMACEUTICALS INC., priority 1990, dated 1992).
Read-outs that look alike come from different tables or passages of the source.

What was measured:
[1] = test system: Mustard Oil-Induced Mouse Ear Edema; test: Mustard oil-induced mouse ear edema; format: in vivo, Charles River male CD-1 mice; conditions: ear weight increase after 30 minutes
Experimental: Charles River male CD-1 mice weighing 30-60 grams were divided into randomized groups. They were dosed i.p. for 30 minutes prior or orally 1 hour prior to application of 20 µl of mustard oil (10% isothiocyanate in acetone) to the right ear. After 30 minutes the mice were sacrificed and an 8 millimeter diameter circular punch biopsy of each ear was obtained and weighed. The difference between the left (control) and right (treated) ear weights were expressed as percent increase.

Rat PMNL [2] = test: Measurement of intracellular calcium in fMLP-stimulated PMNL preloaded with Fura-2; format: cell-based; conditions: fMLP stimulus, preincubation with compound 15 minutes at 37°C, concentrations in figure 1
Experimental: (§1) Rat PMNL were obtained from exudates resulting from peritoneal injection of 6 mL of 8% sodium caseinate. Eighteen hours after injection rats were killed by carbon dioxide inhalation and the peritoneal cavity lavaged with Hank's balanced salt solution (HBSS). After concentration of the PMNL by centrifugation, contaminating erythrocytes were removed by hypotonic lysis. The PMNL were then washed twice by centrifugation (400 x g for 10 minutes) and resuspended in HBSS. Cell viability was greater than 90% by Trypan Blue exclusion and greater than 90% of the cells were PMNL by Wright-Giemsa stain.
Intracellular calcium levels were obtained using Fura-2 as fluorescent indicator (Grynkiewicz et al., 1985). Fura-2 was loaded into PMNL as the acetoxymethyl ester (Fura-2/AM) using the method of Korchak et al., (1988). Specifically, 1 X 10⁸ PMNL/mL were incubated in HBSS with 10 µM Fura-2/AM for 10 minutes at 37°C. The cells suspension was then diluted ten fold with HBSS and further incubated for another 20 minutes. The cells were then centrifuged (400 x g for 8 minutes at 25°C) and the PMNL (1 x 10⁷ cells/mL) resuspended in HBSS containing 1% bovine serum albumin. Cells were stored at room temperature and used within 3 hours.
Intracellular calcium level determinations were made using a dual wavelength spectrofluorometer (Photon Technology International, New Brunswick, NJ). Two mL of PMNL suspension (1 x 10⁷ cells/mL) were stirred magnetically at 37°C. Cells were preincubated with the compounds for 15 minutes at 37°C prior to activation. Where compounds were dissolved in DMSO and added directly, the DMSO never exceeded 0.3% in the final cell suspension. Total change in volume with addition of compounds or vehicle and stimuli never exceeded 3%. Intracellular calcium concentrations were calibrated by setting a maximum calcium level in the cells with the addition of 7 µM ionomycin to PMNL in HBSS containing 1% BSA. This was followed by treatment with 20 mM EGTA for 1 hour to obtain a minimum calcium level. […]

Rat PMNL [3] = test: Superoxide anion (SOA) production by stimulated PMNL; format: cell-based; conditions: for inhibition of superoxide anion production: PMA and OZ stimulus, result in words; for inhibition at 1 µM / inhibition at 3 µM / inhibition at 10 µM / inhibition at 30 µM / inhibition at 100 µM: Rattus norvegicus, PMNL, inhibition of superoxide anion production; for inhibition at 1 µM: 1 µM compound; for inhibition at 3 µM: 3 µM compound; for inhibition at 10 µM: 10 µM compound; for inhibition at 30 µM: 30 µM compound; for inhibition at 100 µM: 100 µM compound
Experimental: as §1
Aliquots (50 µl) of a rat PMNL suspension (2 x 10⁷ cells/mL in HBSS) were incubated with 50 µl of HBSS containing vehicle (0.3% DMSO) or compound for 30 minutes at 37°C as above. One hundred microliters of buffer containing 5.98 mg/mL of cytochrome C (Sigma Type III) and 0.1 mg/mL catalase, plus the compounds where appropriate, were then added to each sample. A blank for spectrophotometric measurement, containing unstimulated cells in the presence of cytochrome C, catalase and SOD, was also prepared. To activate the PMNL, 75 µl of PMA or OZ were added to achieve the final concentration of cell activator (plus vehicle or inhibitor as described above for MPO release) and the cells further incubated at 37°C for 60 minutes. The activation was terminated by centrifugation at 600 x g for 5 minutes at 4°C. Aliquots (200 µl) of supernatant were then transferred to a second, flat-well microtiter plate and measured spectrophotometrically at 550 nm. […]

[4] = test system: Carrageenin-Induced Rat Paw Edema; test: Carrageenin-induced rat paw edema; format: in vivo, Charles River male Sprague-Dawley rats; conditions: one hour prior to paw injection, paw volume three hours after carrageenin, dose not given
Experimental: Charles River male Sprague-Dawley rats weighing 90 to 100 grams were used. Inflammation of the left hind paw was induced by a 1% carrageenin solution (0.05 cc), injected into the plantar surface of the paw. The contralateral paw was injected with an equal volume of saline. Drugs were administered orally or i.p. (1 cc/100 grams) one hour prior to paw injection. Three hours following the carrageenin injection the difference in volume of the control and inflamed paw was measured. Each paw was immersed in a well of mercury and the volume of mercury displaced was recorded. Paws were uniformly dipped into the mercury up to the beginning of the hairline. A venous pressure transducer, coupled to a chart recorder, was employed to measure the small volumes of mercury displaced. Each group measurement consists of the average of four rats, each with three separate measurements.

[5] = 10 mg/Kg i.p., 30 minutes prior to mustard oil
[6] = 10 mg/Kg oral, 1 hour prior to mustard oil
[7] = 30 mg/Kg i.p., 30 minutes prior to mustard oil
[8] = 30 mg/Kg oral, 1 hour prior to mustard oil
[9] = 100 mg/Kg i.p., 30 minutes prior to mustard oil
[10] = 100 mg/Kg oral, 1 hour prior to mustard oil
[11] = PMA stimulus, read-out: PMA/SOA
[12] = opsonized zymosan stimulus, read-out: OZ/SOA

| SMILES | %Inhibition [1, 5] | %Inhibition [1, 6] | %Inhibition [1, 7] | %Inhibition [1, 8] | %Inhibition [1, 9] | %Inhibition [1, 10] | suppression of the second wave of intracellular calcium changes (Rat PMNL [2]) | inhibition of superoxide anion production (Rat PMNL [3]) | inhibition at 1 µM (Rat PMNL [3]; [11]) | inhibition at 3 µM (Rat PMNL [3]; [11]) | inhibition at 10 µM (Rat PMNL [3]; [11]) | inhibition at 30 µM (Rat PMNL [3]; [11]) | inhibition at 100 µM (Rat PMNL [3]; [11]) | inhibition at 1 µM (Rat PMNL [3]; [12]) | inhibition at 3 µM (Rat PMNL [3]; [12]) | inhibition at 10 µM (Rat PMNL [3]; [12]) | inhibition at 30 µM (Rat PMNL [3]; [12]) | inhibition at 100 µM (Rat PMNL [3]; [12]) | %Inhibition ([4]; i.p.) | %Inhibition ([4]; p.o.) |
| --- | --- | --- | --- | --- | --- | --- | --- | --- | --- | --- | --- | --- | --- | --- | --- | --- | --- | --- | --- | --- |
| O=C(C#Cc1ccncc1)c1ccccc1 [MDL 101,098, 1-Phenyl-3-(4-pyridinyl)-2-propyne-1-one] | 38.6 ± 13.1% | 38.5 ± 34.9% | 56.8 ± 6.4% | 6.4 ± 27.7% | 68.2 ± 5.8% | 43.9 ± 15.6% | selective concentration-dependent suppression | inhibited in a dose dependent fashion | -30.7% | -4.3% | 29.1% | 70% | 97.2% | -18% | -7.5% | 20.3% | 61.5% | 115% | 64.8% | 42.4% |
| CN(C)c1ccc(C(=O)C#Cc2ccncc2)cc1 [MDL 102,175, 1-(4-Dimethylaminophenyl)-3-(4-pyridinyl)-2-propyne-1-one] | 38.6 ± 13.1% | 38.5 ± 34.9% | 56.8 ± 6.4% | 6.4 ± 27.7% | 68.2 ± 5.8% | 43.9 ± 15.6% | selective concentration-dependent suppression | inhibited in a dose dependent fashion | -20.2% | 13.5% | 49.7% | 77.7% | 100% | -15% | 15.4% | 44.1% | 75.7% | 89.8% | 73.2% | 19.8% |
